Laboratory results as given in patent US20240082273A1, “NEUROKININ INHIBITORS SUCH AS APREPITANT FOR TREATING NON SMALL CELL LUNG CARCINOMA OR BREAST CANCER WITHOUT MUTATIONS” (priority 2020, published 2024).

Legend:
[1] = test system: lung cancer cell lines with molecular profile EGFR−/ALK−/ROS1− (A549, H358, H441, H460, H520); assay: MTT proliferation, NSCLC cell lines with EGFR−/ALK−/ROS1− profile; type: cell-based, human; conditions: for Mean proliferation: 48 hours
Description: (§1) EGFR, ALK and ROS1 are key molecular factors that may be used to determine pathological classification, prognosis, therapeutics and behaviour in patients with lung cancer. EGFR, ALK and ROS1 are biomarkers routinely analysed in the clinical practice of the management of patients with NSCLC. NSCLC with molecular profile EGFR-/ALK-/ROS1- presents a better response to treatment with the NK1 inhibitor aprepitant, compared to lung cancer with different profiles (in particular, EGFR+/ALK-/ROS1- and EGFR-/ALK+/ROS1-, in which EGFR and ALK respectively contain mutations relative to their wild type gene). Commercial lines of lung cancer were used as shown in Table 2 together with their molecular profile. The molecular profile of the cancer cell lines was determined by sequencing and can be consulted in the Cancer Cell Line Encyclopaedia database of public access available at the url: https://portals.broadinstitute.org/ccle All cells were cultured in wells under vendor-recommended conditions and exposed to different concentrations of aprepitant for 48 hours. In each case a group of wells of cells were used to which no treatment was applied and which were considered as controls. At 48 hours the number of cells was measured. Eight cell lines of human were used for the study of NK1 inhibitors (Table 3). All of them were maintained in culture in their respective culture media (Gibco,Thermo Fisher Scientific) supplemented with 10% foetal bovine serum (FBS) (Gibco, Thermo Fisher Scientific), 2 mM L-Glutamine (Gln) (Sigma-Aldrich, Merk), and […] and […] Gibco, Thermo Fisher Scientific) in a humidified incubator at 37° C. and 5% CO2. Cell culture media used are Dulbecco's Modified Eagle Medium (DMEM), and RPMI Medium 1640 (RPMI-1640). To measure cell viability, the cytotoxicity of drugs in culture was evaluated using the 3-(4,5-Dimethyl-2-thiazolyl)-2,5-diphenyl-2H-tetrazolium bromide (MTT) reduction assay. This assay assesses cell viability through the indirect measurement of the activity of reductases that convert yellow soluble MTT into purple insoluble formazan salts. As MTT can only be reduced when these enzymes are active, the reaction is used as an indicator of the cell metabolic competence and, therefore, of viability. A variable number of cells (depending on the cell line) were seeded in 96 multi-well plates and grown during 24 hours. The following day, the culture medium was aspirated and fresh culture medium with the drug dissolved was added to the wells. After 24 hours or 48 hours cell viability was measurement by adding 10 μl of a 5 mg/ml MTT solution (M5655; Sigma-Aldrich) and 100 μl of HCl 0.01M-SDS 10% solution 4 hours later. After 24 hours, the absorbance was measured at 595 nm, using a multi-well plate reader (iMark, Bio-rad). Each condition was tested 5 times, obtaining 5 values of absorbance. All sample measurements were corrected using the blank (culture medium without cells) mean absorbance value, and normalized to positive control to determinate relative cell viability for each condition at 24 and 48 hours.

[2] = test system: H441; assay: MTT proliferation, H441; type: cell-based, human; conditions: 48 hours
Description: as §1

[3] = test system: H520; assay: MTT proliferation, H520; type: cell-based, human; conditions: 48 hours
Description: as §1

[4] = test system: breast cancer cell line ER+/PR+/HER2+ (BT474); assay: MTT proliferation, breast cancer cell line ER+/PR+/HER2+; type: cell-based, human; conditions: 48 hours
Experimental: (§2) All cells were cultured in wells under vendor-recommended conditions and exposed to different concentrations of aprepitant for 48 hours. In each case a group of wells of cells were used to which no treatment was applied and which were considered as controls. At 48 hours the number of cells was measured. To measure cell viability, the cytotoxicity of drugs in culture was evaluated using the 3-(4,5-Dimethyl-2-thiazolyl)-2,5-diphenyl-2H-tetrazolium bromide (MTT) reduction assay. This assay assesses cell viability through the indirect measurement of the activity of reductases that convert yellow soluble MTT into purple insoluble formazan salts. As MTT can only be reduced when these enzymes are active, the reaction is used as an indicator of the cell metabolic competence and, therefore, of viability. A variable number of cells (depending on the cell line) were seeded in 96 multi-well plates and grown during 24 hours. The following day, the culture medium was aspirated and fresh culture medium with the drug dissolved was added to the wells. After 24 hours or 48 hours cell viability was measurement by adding 10 μl of a 5 mg/ml MTT solution (M5655; Sigma-Aldrich) and 100 μl of HCl 0.01M-SDS 10% solution 4 hours later. After 24 hours, the absorbance was measured at 595 nm, using a multi-well plate reader (iMark, Bio-rad). Each condition was tested 5 times, obtaining 5 values of absorbance. All sample measurements were corrected using the blank (culture medium without cells) mean absorbance value, and normalized to positive control to determinate relative cell viability for each condition at 24 and 48 hours.

[5] = test system: breast cancer cell lines ER+/PR+/HER2− (MCF7, T47D); assay: MTT proliferation, breast cancer cell lines ER+/PR+/HER2−; type: cell-based, human; conditions: 48 hours
Experimental: as §2

[6] = daily dosing from 625 to 875 mg; cited from earlier work

C[C@@H](O[C@H]1OCCN(Cc2nc(=O)[nH][nH]2)[C@H]1c1ccc(F)cc1)c1cc(C(F)(F)F)cc(C(F)(F)F)c1 [Aprepitant]
inhibition at 5 µM ([1]; Homo sapiens, concentration of 5 μM, in most cell lines (FIG. 3)): ~20%
inhibition at 20 µM ([1]; Homo sapiens, concentration of 20 μM (FIG. 3), read-out: growth inhibition): 60%
Mean proliferation ([1]; aprepitant 1 μM): 98.09
Mean proliferation ([1]; aprepitant 3 μM): 94.71
Mean proliferation ([1]; aprepitant 5 μM): 72.82
Mean proliferation ([1]; aprepitant 10 μM): 59.95
Mean proliferation ([1]; aprepitant 20 μM): 42.37
Mean proliferation ([1]; aprepitant 30 μM): 30.66
Mean proliferation ([1]; aprepitant 40 μM): 18.72
Mean proliferation ([1]; aprepitant 50 μM): 4.05
Mean proliferation ([1]; aprepitant 60 μM): 4.40
proliferation compared to control ([1]; concentration of 5 μM, in most cell lines (FIG. 3)): 80%
response to treatment versus EGFR+/ALK−/ROS1− and EGFR−/ALK+/ROS1− profiles ([1]; in vitro, Table 4 and FIG. 2): clearly improved response
Mean proliferation ([2]; aprepitant 1 μM): 100.6
Mean proliferation ([2]; aprepitant 3 μM): 90.97
Mean proliferation ([2]; aprepitant 5 μM): 64.10
Mean proliferation ([2]; aprepitant 10 μM): 61.08
Mean proliferation ([2]; aprepitant 20 μM): 53.64
Mean proliferation ([2]; aprepitant 30 μM): 37.56
Mean proliferation ([2]; aprepitant 40 μM): 20.50
Mean proliferation ([2]; aprepitant 50 μM): 3.14
Mean proliferation ([2]; aprepitant 60 μM): 10.83
Mean proliferation ([3]; aprepitant 1 μM): 100.27
Mean proliferation ([3]; aprepitant 3 μM): 98.27
Mean proliferation ([3]; aprepitant 5 μM): 80.08
Mean proliferation ([3]; aprepitant 10 μM): 66.40
Mean proliferation ([3]; aprepitant 20 μM): 43.07
Mean proliferation ([3]; aprepitant 30 μM): 29.80
Mean proliferation ([3]; aprepitant 40 μM): 9.59
Mean proliferation ([3]; aprepitant 50 μM): 5.78
Mean proliferation ([3]; aprepitant 60 μM): −1.07
Mean proliferation ([4]; aprepitant 0.3 μM): 100.88
Mean proliferation ([4]; aprepitant 1 μM): 101.83
Mean proliferation ([4]; aprepitant 3 μM): 91.36
Mean proliferation ([4]; aprepitant 10 μM): 85.45
Mean proliferation ([4]; aprepitant 20 μM): 80.23
Mean proliferation ([4]; aprepitant 30 μM): 57.51
Mean proliferation ([4]; aprepitant 40 μM): 43.65
Mean proliferation ([4]; aprepitant 50 μM): 23.8
Mean proliferation ([4]; aprepitant 60 μM): 9.29
Mean proliferation ([5]; aprepitant 0.3 μM): 102.47
Mean proliferation ([5]; aprepitant 1 μM): 99.16
Mean proliferation ([5]; aprepitant 3 μM): 106.96
Mean proliferation ([5]; aprepitant 10 μM): 81.55
Mean proliferation ([5]; aprepitant 20 μM): 67.98
Mean proliferation ([5]; aprepitant 30 μM): 54.13
Mean proliferation ([5]; aprepitant 40 μM): 35.22
Mean proliferation ([5]; aprepitant 50 μM): 21.79
Mean proliferation ([5]; aprepitant 60 μM): 11.7
plasma trough level [6]: 2.65 µg/mL
plasma trough level (equivalent) [6]: 5 µM
